ChEMBL document CHEMBL3865816, “Design, synthesis and biological evaluation of novel azaspiro analogs of linezolid as antibacterial and antitubercular agents” (Eur J Med Chem, 2016)
≈ marks a conversion by molar mass, not a printed value.

Legend:
Assay type in all cases: functional
Pseudomonas aeruginosa [1] = test: Antibacterial activity against Pseudomonas aeruginosa NCIM 2036 measured after 8 hrs by spectrophotometric method; settings: NCIM 2036, 8 h
Staphylococcus aureus [2] = test: Antibacterial activity against Staphylococcus aureus NCIM 2079 measured after 12 hrs by spectrophotometric method; settings: NCIM 2079, 12 h
Escherichia coli [3] = test: Antibacterial activity against Escherichia coli NCIM 2688 measured after 8 hrs by spectrophotometric method; settings: NCIM 2688, 8 h
Bacillus subtilis [4] = test: Antibacterial activity against Bacillus subtilis NCIM 2010 measured after 12 hrs by spectrophotometric method; settings: NCIM 2010, 12 h
[5] = tested on: Mycobacterium tuberculosis; test: Antitubercular activity against dormant stage Mycobacterium tuberculosis H37Ra measured after 12 days by XTT assay; settings: 288 h
Escherichia coli [6] = test: Antibacterial activity against Escherichia coli NCIM 2688 at 30 ug/ml measured after 8 hrs by spectrophotometric method; settings: NCIM 2688, 8 h
Escherichia coli [7] = test: Antibacterial activity against Escherichia coli NCIM 2688 at 10 ug/ml measured after 8 hrs by spectrophotometric method; settings: NCIM 2688, 8 h
Escherichia coli [8] = test: Antibacterial activity against Escherichia coli NCIM 2688 at 3 ug/ml measured after 8 hrs by spectrophotometric method; settings: NCIM 2688, 8 h
Pseudomonas aeruginosa [9] = test: Antibacterial activity against Pseudomonas aeruginosa NCIM 2036 at 30 ug/ml measured after 8 hrs by spectrophotometric method; settings: NCIM 2036, 8 h
Pseudomonas aeruginosa [10] = test: Antibacterial activity against Pseudomonas aeruginosa NCIM 2036 at 10 ug/ml measured after 8 hrs by spectrophotometric method; settings: NCIM 2036, 8 h
Pseudomonas aeruginosa [11] = test: Antibacterial activity against Pseudomonas aeruginosa NCIM 2036 at 3 ug/ml measured after 8 hrs by spectrophotometric method; settings: NCIM 2036, 8 h
Staphylococcus aureus [12] = test: Antibacterial activity against Staphylococcus aureus NCIM 2079 at 30 ug/ml measured after 12 hrs by spectrophotometric method; settings: NCIM 2079, 12 h
Staphylococcus aureus [13] = test: Antibacterial activity against Staphylococcus aureus NCIM 2079 at 10 ug/ml measured after 12 hrs by spectrophotometric method; settings: NCIM 2079, 12 h
Staphylococcus aureus [14] = test: Antibacterial activity against Staphylococcus aureus NCIM 2079 at 3 ug/ml measured after 12 hrs by spectrophotometric method; settings: NCIM 2079, 12 h
Bacillus subtilis [15] = test: Antibacterial activity against Bacillus subtilis NCIM 2010 at 30 ug/ml measured after 12 hrs by spectrophotometric method; settings: NCIM 2010, 12 h
Bacillus subtilis [16] = test: Antibacterial activity against Bacillus subtilis NCIM 2010 at 10 ug/ml measured after 12 hrs by spectrophotometric method; settings: NCIM 2010, 12 h
Bacillus subtilis [17] = test: Antibacterial activity against Bacillus subtilis NCIM 2010 at 3 ug/ml measured after 12 hrs by spectrophotometric method; settings: NCIM 2010, 12 h
[18] = tested on: Mycobacterium tuberculosis; test: Antitubercular activity against dormant stage Mycobacterium tuberculosis H37Ra at 30 ug/ml measured after 12 days by XTT assay; settings: 288 h
[19] = tested on: Mycobacterium tuberculosis; test: Antitubercular activity against dormant stage Mycobacterium tuberculosis H37Ra at 10 ug/ml measured after 12 days by XTT assay; settings: 288 h
[20] = tested on: Mycobacterium tuberculosis; test: Antitubercular activity against dormant stage Mycobacterium tuberculosis H37Ra at 3 ug/ml measured after 12 days by XTT assay; settings: 288 h

| SMILES | IC50 (Pseudomonas aeruginosa [1]) [µg/mL] | MIC (Pseudomonas aeruginosa [1]) [µg/mL] | IC50 (Staphylococcus aureus [2]) [µg/mL] | MIC (Staphylococcus aureus [2]) [µg/mL] | IC50 (Escherichia coli [3]) [µg/mL] | MIC (Escherichia coli [3]) [µg/mL] | IC50 (Bacillus subtilis [4]) [µg/mL] | MIC (Bacillus subtilis [4]) [µg/mL] | IC50 [5] [µg/mL] | MIC [5] [µg/mL] | inhibition at 30 µg/mL (Escherichia coli [6]) [%] | inhibition at 10 µg/mL (Escherichia coli [7]) [%] | inhibition at 3 µg/mL (Escherichia coli [8]) [%] | inhibition at 30 µg/mL (Pseudomonas aeruginosa [9]) [%] | inhibition at 10 µg/mL (Pseudomonas aeruginosa [10]) [%] | inhibition at 3 µg/mL (Pseudomonas aeruginosa [11]) [%] | inhibition at 30 µg/mL (Staphylococcus aureus [12]) [%] | inhibition at 10 µg/mL (Staphylococcus aureus [13]) [%] | inhibition at 3 µg/mL (Staphylococcus aureus [14]) [%] | inhibition at 30 µg/mL (Bacillus subtilis [15]) [%] | also measured |
| --- | --- | --- | --- | --- | --- | --- | --- | --- | --- | --- | --- | --- | --- | --- | --- | --- | --- | --- | --- | --- | --- |
| COc1ccc(NC(=S)NC[C@H]2CN(c3ccc(N4CC5(COC5)C4)c(F)c3)C(=O)O2)cc1 | > 100 | > 100 | 0.74 to 100 (≈ 1.57 to 212 µM) | 16.1 to 100 (≈ 34.1 to 212 µM) | 1.1 (≈ 2.33 µM) | 10.7 (≈ 22.6 µM) | 1.1 (≈ 2.33 µM) | 8.78 (≈ 18.6 µM) | > 100 | > 100 | 98 | 89.4 | 82.2 | 58.5 | 30.1 | 17.7 | 98.3 | 88.7 | 81.4 | 100 | inhibition at 10 µg/mL (Bacillus subtilis [16]): 95.3%; inhibition at 3 µg/mL (Bacillus subtilis [17]): 77.9%; inhibition at 30 µg/mL [18]: 23.3%; inhibition at 10 µg/mL [19]: -3.34%; inhibition at 3 µg/mL [20]: 14.3% |
| O=C1O[C@@H](CNC(=S)Nc2ccc(Cl)cc2)CN1c1ccc(N2CC3(COC3)C2)c(F)c1 | > 100 | > 100 | > 100 | > 100 | > 100 | > 100 | > 100 | > 100 | > 100 | > 100 | 69.9 | 42.5 | 47.7 | 71.2 | 49.4 | 34 | 47.5 | 37.9 | 18.8 | 62.6 | inhibition at 10 µg/mL (Bacillus subtilis [16]): 45.6%; inhibition at 3 µg/mL (Bacillus subtilis [17]): 24.1%; inhibition at 30 µg/mL [18]: -0.48%; inhibition at 10 µg/mL [19]: 15.7%; inhibition at 3 µg/mL [20]: 14.8% |
| O=C1O[C@@H](CNC(=S)Nc2cccc(C(F)(F)F)c2)CN1c1ccc(N2CC3(COC3)C2)c(F)c1 | > 100 | > 100 | > 100 | > 100 | 0.49 (≈ 0.96 µM) | 2.41 (≈ 4.72 µM) | > 100 | > 100 | > 100 | > 100 | 96.3 | 95.8 | 93.3 | 79.6 | 67 | 45.2 | 94.5 | 79.2 | 64.1 | 97.2 | inhibition at 10 µg/mL (Bacillus subtilis [16]): 80.2%; inhibition at 3 µg/mL (Bacillus subtilis [17]): 65.9%; inhibition at 30 µg/mL [18]: 78%; inhibition at 10 µg/mL [19]: 44.5%; inhibition at 3 µg/mL [20]: 10.7% |
| O=C1OC2(CCNC2)CN1c1ccc(N2CCOCC2)c(F)c1 (stereo not given) | > 100 | > 100 | > 100 | > 100 | 4.44 (≈ 13.8 µM) | 0.554 (≈ 1.72 µM) | > 100 | > 100 | > 100 | > 100 | 99.8 | 96.2 | 86.4 | 36.2 | 32.2 | 22.6 | 50.2 | 46.8 | 36.2 | 32.2 | inhibition at 10 µg/mL (Bacillus subtilis [16]): 21.5%; inhibition at 3 µg/mL (Bacillus subtilis [17]): 8.05%; inhibition at 30 µg/mL [18]: 49.3%; inhibition at 10 µg/mL [19]: 17%; inhibition at 3 µg/mL [20]: 13.6% |
| OC1(CNc2ccc(N3CCOCC3)c(F)c2)CCN(Cc2ccccc2)C1 (stereo not given) | > 100 | > 100 | > 100 | > 100 | > 100 | > 100 | > 100 | > 100 | > 100 | > 100 | 53.9 | 49.6 | 45 | 63.7 | 37.1 | 14.4 | 53.2 | 48.9 | 44.3 | 52.2 | inhibition at 10 µg/mL (Bacillus subtilis [16]): 47.1%; inhibition at 3 µg/mL (Bacillus subtilis [17]): 44.7%; inhibition at 30 µg/mL [18]: 5.62%; inhibition at 10 µg/mL [19]: 6.11%; inhibition at 3 µg/mL [20]: 8% |
